Where a name gives a salt, the structure may show the parent alone. Where only a bound is given, the exact number is not on record here.

One series has as its target T1, Neuropeptide Y2 (Rattus norvegicus, UniProt Q9ERC0).
T1 construct: their brains are rapidly removed and the hypoccampus is dissected; from tissue; host or cells: rat hippocampus membranes (male Wistar rats)
T1 sequence (Q9ERC0 1-381): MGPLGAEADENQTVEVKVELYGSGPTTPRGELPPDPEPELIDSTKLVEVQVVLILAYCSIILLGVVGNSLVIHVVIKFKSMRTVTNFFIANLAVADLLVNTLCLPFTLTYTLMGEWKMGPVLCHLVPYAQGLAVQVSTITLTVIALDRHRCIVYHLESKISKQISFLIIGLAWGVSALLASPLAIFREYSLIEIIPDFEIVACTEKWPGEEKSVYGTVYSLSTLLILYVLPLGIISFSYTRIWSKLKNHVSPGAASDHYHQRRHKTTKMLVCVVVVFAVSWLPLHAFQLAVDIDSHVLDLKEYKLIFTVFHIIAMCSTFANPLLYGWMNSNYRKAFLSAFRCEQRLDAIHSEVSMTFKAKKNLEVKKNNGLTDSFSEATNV
The series can be described thus: Binding to Neuropeptide Y2, Method (III), rat hypoccampus membranes. As to conditions: [125I]-PYY(3-36). As for the experimental part: Binding to Neuropeptide Y2
Said literature description is herewith incorporated by reference and forms part of the disclosure.
Male Wistar rats are sacrificed by decapitation, their brains are rapidly removed and the hypoccampus is dissected. Homogenization is performed in cold conditions in the buffer: 120 mM NaCl, 4.7 mM KCl, 2.2 mM CaCl2, 1.2 mM KH2PO4, 1.2 mM MgSO4, 25 mM NaHCO3, 5.5 mM glucose, pH 7.4, by means of a Ultra-Turrax homogenizer for 15 seconds at 13,500 rpm. The ratio between fresh tissue weight and buffer volume is of ten times. The membrane is centrifuged for 10 min at 48,000 g. The supernatant is discarded and the pellet is washed, resuspended and recentrifuged two more times. The final membrane resuspension is performed in the buffer: 120 mM NaCl, 4.7 mM KCl, 2.2 mM CaCl2, 1.2 mM KH2PO4, 1.2 mM MgSO4, 25 mM NaHCO3, 5.5 mM glucose, 0.1% BSA, 0.05% bacitracin, pH 7.4, at a 90 ml/g ratio of fresh issue. […] Incubation volume: 500 μl. […] The filters are cold-washed three times with three milliliters of the same buffer used in homogenization. […] Non-specific binding is determined in the presence of 1 μM of pNPY (Neuropeptide Y of porcine origin). The assays are performed in triplicate.

The subject of the next series is rats. The series can be described thus: Nocturnal feeding (food intake measurement). The series is classed as in vivo, rat. As to conditions: vs. control group. As for the experimental part:
Behavioural Models (Food Intake Measurements)
In both test, animals rats (Male W, 200-270 g, obtained from Harlan, S. A) were used. The rats are acclimatized to the animal facility for at least 5 days before being subjected to any experimental procedure. During this period, animals were housed in groups of five in translucid cages and provided with food and water ad libitum. At least 24 hours before the tests, animals are adapted to single-housing conditions.
Food intake is measured in home cages in order to minimize non-specific stress effects on food intake resulting from changes in housing conditions. Food and water is available ad libitum. Immediately before lights turn off, rats are weighed, randomized and dosed (orally or intraperitoneally), either with vehicle or selected benzoxacine-compounds of general formula (I). Thereafter, rats are returned to home cages and food left on top covers is measured. Remaining food and animal's weight is measured next morning.
The above mentioned methods are described in Ants Kask et al., Europan Journal of Pharmacology 414 (2001) 215-224 and Turnbull et al., Diabetes, Vol. 51, August 2002, which are hereby incorporated by reference and form part of the disclosure.

Another series addresses T2, rat Y5 receptor (Rattus norvegicus, UniProt Q63634).
T2 construct: expressed in transfected cells; host or cells: C6 cells
T2 sequence (Q63634 1-445): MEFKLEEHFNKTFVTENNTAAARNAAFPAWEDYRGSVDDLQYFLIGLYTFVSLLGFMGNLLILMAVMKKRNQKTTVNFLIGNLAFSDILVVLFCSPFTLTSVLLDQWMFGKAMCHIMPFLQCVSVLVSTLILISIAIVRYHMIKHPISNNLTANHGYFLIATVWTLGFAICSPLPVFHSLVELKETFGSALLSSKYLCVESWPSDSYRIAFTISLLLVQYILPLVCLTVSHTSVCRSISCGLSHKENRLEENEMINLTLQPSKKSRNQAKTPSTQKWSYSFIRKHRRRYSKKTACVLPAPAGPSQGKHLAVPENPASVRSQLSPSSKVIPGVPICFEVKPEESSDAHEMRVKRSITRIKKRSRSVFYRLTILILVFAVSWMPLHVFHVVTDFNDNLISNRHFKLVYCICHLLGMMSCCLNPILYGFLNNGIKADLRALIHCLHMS
In words: Neuropeptide Y5 receptor binding, Method (II), C6 cells transfected with the rat Y5 receptor. As to conditions: [125I]-PYY, Y5 rat recombinant receptor, cell C6. As for the experimental part: Neuropeptide Y5 Receptor Binding Studies:
The methods used for membrane preparation and binding are similar to those described by Y. Hu, B. T. Bloomquist et al. in Y. Hu, B. T. Bloomquist et al., The Journal of Biological Chemistry, 1996, 271, 26315-26319 with modifications. Said literature description is herewith incorporated by reference and forms part of the disclosure. Cells C6 were transfected with the rat Y5 receptor. The cells were grown under standard culture conditions in 150 cm^2 dishes and they were harvested using a rubber scraper and 10 ml PBS. The cells from five dishes were collected and centrifuged 2.500 g for 5 min (4° C). The pellet was washed by resuspending in 3 ml buffer (Tris-HCl 10 mM, pH 7.4), homogenized using a Potter S homogenizer, 10 strokes at 600 rpm and centrifuged 48.000 g for 20 min (4° C.). The pellet was resuspended in 8 ml membrane buffer (Tris-HCl 25 mM, NaCl 120 mM, KCl 5 mM, KH2PO4 1.2 mM, CaCl2 2.5 mM, MgSO4 1.2 mM, BSA 0.15 mg/ml, Bacitracine 0.5 mg/ml, pH 7.4) and rehomogenized using the Potter S, 10 strokes at 600 rpm. The protein concentration in the incubation was 40 μg/ml. The radioligand was [^125I]-PYY (100 pM) in a total incubation volume of 200 μl. Following incubation at 25° C. for 2 h, the reaction was stopped by addition of 5 ml ice-cold buffer (Tris-HCl 25 mM, NaCl 120 mM, KCl 5 mM, KH2PO4 1.2 mM, CaCl2 2.5 mM, MgSO4 1.2 mM, pH 7.4) and rapid filtration in a Harvester Brandell Cell using filters (Schleicher & Schuell G F 3362) pretreated for two hours with 0.5% polyethyleneimine. Filters were washed one time with 5 ml ice-cold buffer. The filters were placed into plastic scintilation vials and 5 ml scintilation cocktail Ecoscint H were added. The quantity of radioactivity present was determined in a Wallac Winspectral 1414 counter. Non specific binding was determined in the presence of 1 μM de pNPY. All binding assays were done in triplicate.

`Cc1cccc2c1N(C1CCN(CC(=O)Nc3ccc4c(c3)-c3ccccc3C4=O)CC1)C(=O)OC2` (as salt: HCl) [Example 35, 2-[4-(8-Methyl-2-oxo-4H-benzo[d][1,3]oxazin-1-yl)-piperidin-1-yl]-N-(9-oxo-9H-fluoren-3-yl)-acetamide hydrochloride] showed a melting point of 233 to 236 °C.
On Neuropeptide Y2, `O=C(CN1CCC(N2C(=O)OCc3ccccc32)CC1)Nc1ccc2c(c1)-c1ccccc1C2=O` [Example 3, 2-[4-(2-oxo-4H-benzo[d][1,3]oxazin-1-yl)-piperidin-1-yl]-N-(9-oxo-9H-fluoren-3-yl)-acetamide hydrochloride] came in with an inhibition constant (Ki) greater than 1000 nM.
As for `CCn1c2ccccc2c2cc(NC(=O)CN3CCC(N4C(=O)OCc5ccccc54)CC3)ccc21` [Example 18, N-(9-Ethyl-9H-carbazol-3-yl)-2-[4-(2-oxo-4H-benzo[d][1,3]oxazin-1-yl)-piperidin-1-yl]-acetamide hydrochloride], in the series on rats (40 mg/kg i.p. administration), the “Effect: body weight of treated animals” value is reported as “reduces body weight of” and the “Effect: food intake” value was “Decreases food intake and”.
As for `Cc1ccc2c(c1)COC(=O)N2C1CCN(CC(=O)Nc2ccc3c(c2)-c2ccccc2C3=O)CC1` [Example 20, 2-[4-(6-methyl-2-oxo-4H-benzo[d][1,3]oxazin-1-yl)-piperidin-1-yl]-N-(9-oxo-9H-fluoren-3-yl)-acetamide hydrochloride], on Neuropeptide Y2, the Ki was greater than 1000 nM. For the same molecule, in the series with rats (40 mg/kg i.p. administration), the “Effect: body weight of treated animals” value was “reduces body weight of” and the “Effect: food intake” value was “Decreases food intake and”.
As to `Cc1cccc2c1N(C1CCN(CC(=O)Nc3ccc4c(c3)-c3ccccc3C4=O)CC1)C(=O)OC2` [Example 35, 2-[4-(8-Methyl-2-oxo-4H-benzo[d][1,3]oxazin-1-yl)-piperidin-1-yl]-N-(9-oxo-9H-fluoren-3-yl)-acetamide hydrochloride], in the series with rats (20 mg/kg i.p. administration), the “Effect: body weight of treated animals” value is “reduces body weight of” and the “Effect: food intake” value is listed as “Decreases food intake and”.
On to `COc1cccc2c1COC(=O)N2C1CCN(CC(=O)Nc2ccc3sc4ccccc4c3c2)CC1` [Example 107, N-Dibenzothiophene-2-yl-2-[4-(5-methoxy-2-oxo-4H-benzo[d][1,3]oxazin-1-yl)-piperidin-1-yl]-acetamide], for which the IC50 at rat Y5 receptor amounted to 23.5 nM.
Turning to `Cc1nc2cc(NC(=O)CN3CCC(N4C(=O)OCc5cc(F)ccc54)CC3)ccc2s1` [Example 114, 2-[4-(6-Fluoro-2-oxo-4H-benzo[d][1,3]oxazin-1-yl)-piperidin-1-yl]-N-(2-methyl-benzothiazole-5-yl)-acetamide], the IC50 at rat Y5 receptor worked out at 40.7 nM.
Same read-out and setting: under `COc1ccc2c(c1)COC(=O)N2C1CCN(CC(=O)Nc2ccc3sc(C)nc3c2)CC1` [Example 116, 2-[4-(6-Methoxy-2-oxo-4H-benzo[d][1,3]oxazin-1-yl)-piperidin-1-yl]-N-(2-methyl-benzothiazole-5-yl)-acetamide] stands 106 nM.

(Values after patent US7514429B2, “Benzoxazinone-derived compounds, their preparation and use as medicaments” (ESTEVE Laboratorios Dr. Esteve S.A., priority 2002, dated 2009).)
